Values of other authors as cited in patent US6423864B1, “Purification of N-[N-(3,3-dimethylbutyl)-L-α-aspartyl]-L-phenylalanine 1-methyl ester via crystallization” (The NutraSweet Company, priority 1998, dated 2002).

Conditions: relative to sucrose; background statement

COC(=O)[C@H](Cc1ccccc1)NC(=O)[C@H](CC(=O)O)NCCC(C)(C)C [neotame, N-[N-(3,3-dimethylbutyl)-L-α-aspartyl]-L-phenylalanine 1-methyl ester]
sweetness potency (sweeter than sucrose): about 8000 ×
